“Also recorded” adds a separate entry of the source.
Legend:
Format in all cases: in vivo, mouse
[1] = test system: pancreatic tumors in KPC mice; assay: Survival study of tumor-bearing KPC mice; settings: KPC mice enrolled with 5-10 mm tumors
Protocol: vehicles: 20 μL/g 0.85% NaCl+8 μL/g 5% HPBCD;
Compound A: 40 mg/kg Compound A+20 μL/g 0.85% NaCl;
For survival studies, mice were enrolled following the detection of 5-10 mm diameter tumor by ultrasound. Tumors were quantified by 3D ultrasound twice weekly until endpoint.

[2] = test system: KPC tumors; assay: Histology (H&E) of treated KPC tumors; settings: KPC tumors after 8-12 days of treatment
[3] = Compound A concentration in tissues by LC/MS; settings: KPC mice; oral administration 40 mg/kg; 6 h after final dose
Protocol: (§1) KPC mice harboring pancreatic tumors were treated with 40 mg/kg of Compound A by oral gavage, either singly, once daily for four days or at as part of a survival study. […] Six hours following the final dose, tissue samples were harvested, snap frozen in liquid nitrogen and stored at −80° C. Mice with abdominal ascites were excluded from analysis. Samples were analyzed by LC/MS, as described below.
Calibration standard stock solutions were prepared by dissolving Compound A at a concentration of 2.5 mg/mL in DMSO. Internal standard stock solution was prepared by dissolving deuterated Compound A (Compound A-d^3) in DMSO for a final concentration of 2.5 mg/mL. Stock solutions were stored in aliquots at −80° C. until further use. […]
Tumor samples were homogenized in 4 volumes of ACN:PBS buffer. […] Compound A concentrations for all tissues were preferentially determined using the 1:1 dilution unless any of the replicates for a given tissue required the higher dilution of 1/100 for accurate quantitation.
Compound A concentrations in the samples were determined from the calibration curves generated in homogenization buffer. […]
The data were acquired and processed using the software Analyst 1.4.1 (Applied Biosystems, Foster City, Calif.). For the standard curve samples, peak area ratios of Compound A to internal standard […] were calculated and plotted against the theoretical concentrations. […]

[4] = test system: KPC pancreatic tumors; assay: Monitoring of KPC pancreatic tumor volume by 3D high resolution ultrasonography; settings: gemcitabine 100 mg/kg twice weekly, Compound A 40 ug/kg/day, or both
From the text: For survival studies, mice were enrolled following the detection of 5-10 mm diameter tumor by ultrasound. Tumors were quantified by 3D ultrasound twice weekly until endpoint. High resolution ultrasound (US) imaging of normal and diseased mouse pancreas using the Vevo 770 System with a 35 MHz RMV scanhead (Visual Sonics, Inc.). 3D images were produced using the 3D motor arm to collect serial images at 0.25 mm intervals through the thickness of the tumor. Tumors were outlined on each 2D image and reconstructed to quantify the 3D volume using the integrated Vevo 770 software package.

[5] = test system: Gli1; assay: Gli1 expression in KPC tumors by quantitative real-time PCR; settings: 40 mg/kg Compound A oral, treated for 4 days, vs control
Protocol: as §1
RNA was isolated from tissues using the RNeasy kit (Qiagen). cDNA was synthesized from 1-2 ug of RNA using the AffinityScript QPCR cDNA Synthesis Kit (Stratagene). cDNA was analyzed by quantitative real-time PCR on a 7900HT Real-Time PCR system using relative quantification (ΔΔct) with the taqman gene expression assays (Applied Biosystems) (Table 7). Experiment was performed on 5 KPC tumors and 7 syngeneic tumors derived from K8484 or K8675 cells.

[6] = test system: KPC tumors; assay: Doxorubicin delivery to treated KPC tumors (doxorubicin fluorescence, laser scanning cytometry); settings: KPC tumors after 8-12 days of treatment; doxorubicin 20 mg/kg infused
Protocol: To assess the functional vasculature, biotin-conjugated Lycopersicon esculentum lectin (B1175-1 mg, Vector Laboratories) was resuspended in 425 μL PBS and mixed with 75 μL of 1 mg/mL Streptavidin-AlexaFluor 633 (S21375, Molecular Probes) (in sterile PBS). Prior to use, the lectin-avidin mixture was centrifuged 14,000 k on a microfuge for 10 minutes to remove any particulate. Fifteen minutes prior to euthanasia, 100 μl (0.4 mg total) of the conjugated lectin was administered as a slow intravenous infusion over 5 minutes, and the hemodynamics monitored closely to ensure that it was tolerated. […]
Mice were perfused with 4% paraformaldehyde in PBS, pH 7.4, while under terminal anesthesia. […] Doxorubicin fluorescence was determined by quantitative imaging cytometry using the iCys Research Imaging Cytometer (CompuCyte, Cambridge, Mass.) with iNovator software (CompuCyte).
A scanning protocol for quantification was configured with two channels. Nuclear DAPI fluorescence was excited by the 405 nm diode laser and detected in the blue ([…]) channel and doxorubicin fluorescence was excited by the argon […] laser and detected in the orange ([…]) channel. The threshold in the DAPI channel was optimised to selectively contour individual cells allowing fluorescence measurement within the primary and peripheral nuclear contours. […]

## CC1=C2C[C@H]3[C@@H](CC[C@@H]4C[C@H](NS(C)(=O)=O)CC[C@@]43C)[C@@H]2CC[C@@]2(C1)O[C@@H]1C[C@H](C)CN[C@H]1[C@H]2C.Cl [Compound A]
[1]
  effect on survival of KPC mice: Neither gemcitabine nor Compound A treatment had an effect on the survival
[2]
  tumor stroma / histological pattern: dramatically altered histological patterns; also recorded: loss of cellular and acellular stroma
[3]
  accumulation of drug in PDA tissues: measurable accumulation of drug in PDA tissues
[4]
  objective (ultrasonographic) response, responding mice/treated mice: 2/10
[5]
  Gli1 expression: significant decrease; also recorded: significantly lower
[6]
  doxorubicin delivery to tumor tissue (fluorescence per unit area): evident but more variable; also recorded: increased content
